biological target: T1, Dimer of Gag-Pol polyprotein [489-587] (Human immunodeficiency virus 1, UniProt P12497); test: Protease Inhibition Assay; settings: pH 5; 30 °C
T1 construct: 489-587
Experimental: A fluorimetric assay was used to determine the effects of the inhibitors on HIV-1 protease. This assay used an internally quenched fluorescent peptide substrate. The measurements were performed in 96-well plates with a Fluoroscan plate reader. Excitation and emission wavelengths were 355 nm and 500 nm, respectively.

Point of comparison: O=C(N[C@H]1c2ccccc2C[C@H]1O)[C@H](CCc1ccccc1)[C@@H](O)[C@H](O)[C@@H](CCc1ccccc1)C(=O)N[C@H]1c2ccccc2C[C@H]1O [(2R,3R,4R,5R)-3,4-dihydroxy-N,N'-bis[(1S,2R)-2-hydroxy-2,3-dihydro-1H-inden-1-yl]-2,5-bis(2-phenylethyl)hexanediamide], Ki 1.1 nM. Against it:
- O=C(N[C@H]1c2ccccc2C[C@H]1O)[C@H](CCc1ccccc1)[C@H](O)[C@H](O)[C@@H](CCc1ccccc1)C(=O)N[C@H]1c2ccccc2C[C@H]1O [N1,N6 -Bis[(2R)-hydroxy-(1S)-indanyl]-(2R,3R,4S,5R)-3,4-dihydroxy-2,5-bis(2-phenylethyl)hexanediamide] — 25-fold higher, 28 nM
- O=C(N[C@H]1c2ccccc2C[C@H]1O)[C@H](OCc1ccccc1)[C@H](O)[C@@H](O)[C@@H](OCc1ccccc1)C(=O)N[C@H]1c2ccccc2C[C@H]1O [symmetric/asymmetric inhibitor 2] — 1.8-fold lower, 0.6 nM
